Holding throughout (assay type): functional
The subject of assay [1] is Aspergillus flavus. Description: Antifungal activity against Aspergillus flavus after 24 hrs by well diffusion method.
Assay [2] has as its system Candida albicans. Description: Antifungal activity against Candida albicans after 24 hrs by well diffusion method.
The test system of assay [3] is Aspergillus flavus. Description: Antifungal activity against Aspergillus flavus assessed as zone of inhibition at 25 ug/ml measured after 24 hrs by well diffusion method. Particulars: read-out: IZ. For orientation: In agar diffusion tests the substance spreads into inoculated agar from a disc or well.
Assay [4] relates to Aspergillus flavus. Description: Antifungal activity against Aspergillus flavus assessed as zone of inhibition at 50 ug/ml measured after 24 hrs by well diffusion method. Particulars: read-out: IZ.
Assay [5] can be described thus: Antioxidant activity assessed as DPPH free radical scavenging activity at 20 ug/ml after 15 mins by spectrophotometric method. (In general: Loss of DPPH colour is used to gauge radical scavenging.)
The nature of assay [6]: Antioxidant activity assessed as DPPH free radical scavenging activity at 40 ug/ml after 15 mins by spectrophotometric method.
Assay [7] is described as follows: Antioxidant activity assessed as DPPH free radical scavenging activity at 60 ug/ml after 15 mins by spectrophotometric method.
Assay [8] can be described thus: Antioxidant activity assessed as DPPH free radical scavenging activity at 80 ug/ml after 15 mins by spectrophotometric method.
The nature of assay [9]: Antioxidant activity assessed as DPPH free radical scavenging activity at 100 ug/ml after 15 mins by spectrophotometric method.
Assay [10] is described as follows: Antioxidant activity assessed as DPPH free radical scavenging activity measured after 15 mins by spectrophotometric method.
A short description of assay [11]: Antioxidant activity assessed as H2O2 free radical scavenging activity at 20 ug/ml after 10 to 15 mins by spectrophotometric analysis.
Assay [12] is described as follows: Antioxidant activity assessed as H2O2 free radical scavenging activity at 40 ug/ml after 10 to 15 mins by spectrophotometric analysis.
Assay [13] in a line: Antioxidant activity assessed as H2O2 free radical scavenging activity at 60 ug/ml after 10 to 15 mins by spectrophotometric analysis.
Assay [14] can be described thus: Antioxidant activity assessed as H2O2 free radical scavenging activity at 80 ug/ml after 10 to 15 mins by spectrophotometric analysis.
Assay [15] can be described thus: Antioxidant activity assessed as H2O2 free radical scavenging activity at 100 ug/ml after 10 to 15 mins by spectrophotometric analysis.
Assay [16] is described as follows: Antioxidant activity assessed as H2O2 free radical scavenging activity by spectrophotometric analysis.
Assay [17] has as its system Aspergillus niger. Description: Antifungal activity against Aspergillus niger assessed as zone of inhibition at 25 ug/ml measured after 24 hrs by well diffusion method. The settings on record: read-out: IZ.
Assay [18] has as its system Aspergillus niger. Description: Antifungal activity against Aspergillus niger assessed as zone of inhibition at 50 ug/ml measured after 24 hrs by well diffusion method. Particulars: read-out: IZ.
For assay [19], the system named is Aspergillus niger. Description: Antifungal activity against Aspergillus niger assessed as zone of inhibition at 100 ug/ml measured after 24 hrs by well diffusion method. The settings on record: read-out: IZ.
Assay [20] concerns Candida albicans. Description: Antifungal activity against Candida albicans assessed as zone of inhibition at 100 ug/ml measured after 24 hrs by well diffusion method. Particulars: read-out: IZ.
For assay [21], the system named is Candida albicans. Description: Antifungal activity against Candida albicans assessed as zone of inhibition at 50 ug/ml measured after 24 hrs by well diffusion method. Particulars: read-out: IZ.
For assay [22], the system named is Candida albicans. Description: Antifungal activity against Candida albicans assessed as zone of inhibition at 25 ug/ml measured after 24 hrs by well diffusion method. Particulars: read-out: IZ.
Assay [23] relates to Aspergillus flavus. Description: Antifungal activity against Aspergillus flavus assessed as zone of inhibition at 100 ug/ml measured after 24 hrs by well diffusion method. Particulars: read-out: IZ.
Assay [24] relates to Aspergillus niger. Description: Antifungal activity against Aspergillus niger after 24 hrs by well diffusion method.

The record followed here is ChEMBL document CHEMBL4052736, “Synthesis, antioxidant, antifungal, molecular docking and ADMET studies of some thiazolyl hydrazones” (Bioorg Med Chem Lett, 2017).

Structures are written as SMILES. ≈ marks a conversion by molar mass, not a printed value.

With `Cc1ccc(-c2csc(N/N=C/c3ccc(Cl)cc3Cl)n2)cc1`, the MIC against Aspergillus flavus [1] and against Candida albicans [2] was 25 mg/L (≈ 69 µM) in each case. Moreover, the zone of inhibition at 25 µg/mL with Aspergillus flavus [3], with Aspergillus niger [17] and with Candida albicans [22] was 6 mm each time. The zone of inhibition at 50 µg/mL with Aspergillus flavus [4] is 10 mm; with Aspergillus niger [18], 6 mm; with Candida albicans [21], 6 mm. For the same compound, the inhibition – broadly, the change of the read-out against control, counted positive when it falls – in assay [5] amounted to 86%; in assay [6] it was 86.2%; in assay [7], 93.3%; in assay [8], 90.7%; in [9], 95.1%; in [11], 76.2%. For the same compound, the inhibition was determined as 80.4% in assay [12], 83.2% in assay [13], 84.2% in assay [14] and 85.3% in assay [15]. Besides, the results for the IC50 in [10] and in [16] were 30.791 mg/L (≈ 85 µM) and 40.004 mg/L (≈ 110 µM), respectively. The zone of inhibition at 100 µg/mL was found to be 6 mm in the assay with Aspergillus niger [19], 8 mm in the assay on Candida albicans [20] and 16 mm in the assay on Aspergillus flavus [23].

Turning to `OC(Cn1cncn1)(Cn1cncn1)c1ccc(F)cc1F` [FLUCONAZOLE], the MIC against Aspergillus flavus [1], against Aspergillus niger [24] and against Candida albicans [2] was below 3.12 mg/L each time. Further, the zone of inhibition at 25 µg/mL in the assay on Aspergillus flavus [3] came out at 15 mm; with Aspergillus niger [17] it was 14 mm; in the assay on Candida albicans [22] it was 15 mm. The zone of inhibition at 50 µg/mL in the assay with Aspergillus flavus [4] was determined as 18 mm; in the assay on Aspergillus niger [18], 20 mm; with Candida albicans [21] it was 22 mm. Further, the figures for the zone of inhibition at 100 µg/mL with Aspergillus niger [19], with Candida albicans [20] and with Aspergillus flavus [23] were 25 mm, 28 mm and 20 mm, respectively.

As for `Clc1ccc(/C=N/Nc2nc(-c3ccccc3)cs2)c(Cl)c1`, the MIC (in general, the least concentration at which growth counts as inhibited) against Aspergillus flavus [1] was below 3.12 mg/L; against Aspergillus niger [24], 12.5 mg/L (≈ 35.9 µM); against Candida albicans [2] it was 3.12 mg/L (≈ 8.96 µM). Besides, the values for the zone of inhibition at 25 µg/mL in the assay on Aspergillus flavus [3], in the assay on Aspergillus niger [17] and with Candida albicans [22] were 12 mm, 8 mm and 12 mm, respectively. Further, the values for the zone of inhibition at 50 µg/mL with Aspergillus flavus [4], with Aspergillus niger [18] and in the assay with Candida albicans [21] were 15 mm, 10 mm and 14 mm, respectively. Further, the inhibition is 76.6% in assay [5]; 90.2% in [6]; 92.8% in assay [7]; 92.6% in [8]; 95.8% in [9]; 78.1% in assay [11]. Moreover, the inhibition in [12] was 78.9%; in [13], 80.4%; in [14] it was 83.1%; in assay [15], 87.4%. Besides, the 50% inhibitory concentration (IC50) (usually the concentration that gives 50% inhibition) in assay [10] amounted to 29.307 mg/L (≈ 84.2 µM); in assay [16], 43.712 mg/L (≈ 126 µM). The zone of inhibition at 100 µg/mL with Aspergillus niger [19] was found to be 11 mm; in the assay with Candida albicans [20], 15 mm; in the assay on Aspergillus flavus [23], 25 mm.

Regarding `Clc1ccc(-c2csc(N/N=C/c3ccc(Cl)cc3Cl)n2)cc1`, the minimal inhibitory concentration (MIC) against Aspergillus flavus [1] amounted to 6.25 mg/L (≈ 16.3 µM); in the assay on Aspergillus niger [24], 6.12 mg/L (≈ 16 µM); against Candida albicans [2], 3.12 mg/L (≈ 8.15 µM). The values for the zone of inhibition at 25 µg/mL with Aspergillus flavus [3], in the assay on Aspergillus niger [17] and in the assay with Candida albicans [22] were 12 mm, 12 mm and 10 mm, respectively. In addition, the results for the zone of inhibition at 50 µg/mL in the assay on Aspergillus flavus [4], with Aspergillus niger [18] and in the assay with Candida albicans [21] were 15 mm, 13 mm and 15 mm, respectively. The inhibition in [5] is 73.9%; in [6] it was 85.9%; in [7] it was 88.9%; in [8], 92.3%; in [9], 92.4%; in assay [11], 76%. Besides, the inhibition worked out at 76.2% in assay [12], 80.4% in assay [13], 83.1% in assay [14] and 84.4% in assay [15]. For the same compound, the IC50 in assay [10] turned out to be 32.224 mg/L (≈ 84.2 µM); in assay [16] it was 43.537 mg/L (≈ 114 µM). For the same compound, the zone of inhibition at 100 µg/mL in the assay with Aspergillus niger [19] is 17 mm; in the assay on Candida albicans [20], 18 mm; in the assay on Aspergillus flavus [23], 16 mm.

`Fc1ccc(-c2csc(N/N=C/c3cccs3)n2)cc1`: the MIC stood at 25 mg/L (≈ 82.4 µM) against Aspergillus niger [24] and 6.25 mg/L (≈ 20.6 µM) against Candida albicans [2]. In addition, the zone of inhibition at 25 µg/mL came out at 6 mm in the assay on Aspergillus flavus [3], 6 mm in the assay on Aspergillus niger [17] and 12 mm in the assay with Candida albicans [22]. In addition, the results for the zone of inhibition at 50 µg/mL in the assay on Aspergillus flavus [4], with Aspergillus niger [18] and in the assay on Candida albicans [21] were 6 mm, 10 mm and 14 mm, respectively. In addition, the inhibition in assay [5] was found to be 92.4%; in assay [6] it was 93.3%; in [7], 94.6%; in assay [8] it was 66.3%; in [9], 97%; in assay [11] it was 84.2%. Also, the inhibition was 87.5% in [12], 90.3% in assay [13], 91.9% in assay [14] and 92.4% in [15]. For the same compound, the IC50 in [10] was 44.12 mg/L (≈ 145 µM); in [16] it was 35.206 mg/L (≈ 116 µM). The zone of inhibition at 100 µg/mL in the assay with Aspergillus niger [19] stood at 13 mm; in the assay with Candida albicans [20], 15 mm; in the assay on Aspergillus flavus [23], 6 mm.

With `C(=N\Nc1nc(-c2ccccc2)cs1)/c1cccs1`, the results for the MIC against Aspergillus niger [24] and against Candida albicans [2] were 25 mg/L (≈ 87.6 µM) and 12.5 mg/L (≈ 43.8 µM), respectively. The zone of inhibition at 25 µg/mL with Aspergillus flavus [3] is 8 mm; in the assay on Aspergillus niger [17] it was 6 mm; in the assay on Candida albicans [22], 6 mm. Further, the results for the zone of inhibition at 50 µg/mL in the assay on Aspergillus flavus [4], in the assay with Aspergillus niger [18] and in the assay with Candida albicans [21] were 12 mm, 8 mm and 10 mm, respectively. Also, the inhibition in [5] was 95.5%; in [6] it was 95.8%; in assay [7], 97.6%; in [8] it was 97.1%; in assay [9], 96.8%; in assay [11] it was 87.5%. Also, the inhibition in assay [12] stood at 90%; in [13], 91%; in assay [14] it was 92.4%; in assay [15], 94%. Also, the concentration for half-maximal inhibition (IC50) in assay [10] was 26.008 mg/L (≈ 91.1 µM); in assay [16], 31.03 mg/L (≈ 109 µM). The zone of inhibition at 100 µg/mL worked out at 10 mm with Aspergillus niger [19], 12 mm in the assay with Candida albicans [20] and 15 mm with Aspergillus flavus [23].
